Consider 9 compounds from US9440926B2, “Antiviral compounds and methods” (Biotron Limited, priority 2005, dated 2016).

Some results are limits rather than exact numbers.

Format in all cases: cell-based
Data set [1] in a line: Cytotoxicity to cells in the viral inhibition assay (MTT assay). To be noted: human, primary human macrophages, additional compounds, same assay system, MTT, read-out: TC50 (the source's name). Here is the method: The toxicity of test compounds to cells in the viral inhibition assay was determined using the MTT assay (Pauwels R, et al. (1988); D'Cruz O J et al. (1999); Joo H. (2003)). This method utilises Thiazolyl Blue (MTT), which is added to the cell culture (100 ug/well), and incubated for 4-5 hours whilst the live, metabolically active cells convert the chemical to its purple coloured metabolite, which forms intracellular crystals. The purple colour is measured colourimetrically (570-590 nm) once cells have been permeabilised using acidified isopropanol containing 10% triton X-100. The most intense colour development occurs in wells where the metabolising cells are most numerous. […] Those values were estimated manually from the Percentage Viability vs Concentration dose response curves (FIG. 1). The compound toxicity to cells in culture was taken into account in inhibition experiments and in separate experiments involving increased concentrations of compound. TC50 values were estimated in separate experiments (not shown) where concentrations of compound were greater.
(In general: Formazan colour is commonly taken as a measure of viable cells.)

The next data set has as its target T1, Vpu (Human immunodeficiency virus type 1 group M subtype B, UniProt P05919).
T1 construct: expressed in transfected cells
Kind of data set: Bacterial bioassay, Vpu. To be noted: mean bacterial bioassay score; Vpu of HIV. An excerpt: (§1) The bacterial bioassay method used in the present example to test the anti-viral activity of the compounds against different viral targets was described in detail in PCT/2004/000866, incorporated in its entirety herein by reference. Vpu, p7 and M referred to in the table are small membrane proteins encoded by HIV, HCV and Dengue viruses, respectively, which have functional activities supporting viral growth and/or replication.

The next data set has as its target T2, HCV p7 (Hepatitis C virus genotype 1a, UniProt P27958).
T2 construct: expressed in transfected cells
Put plainly: Bacterial bioassay, HCV p7. The settings on record: mean bacterial bioassay score; p7 of HCV. Details: scale not given here.
Description: as §1

The next data set deals with T3, Den M (Dengue virus type 1, UniProt P33478).
T3 construct: expressed in transfected cells
Kind of data set: Bacterial bioassay, Den M. To be noted: mean bacterial bioassay score; M protein of Dengue virus. Details: scale not given here.
Description: as §1

A further data set concerns HIV-1 strain Ba-L. Put plainly: HIV-1 Ba-L growth inhibition in primary macrophages (p24 ELISA). To be noted: Human immunodeficiency virus 1, BAL, Primary macrophage; additional compounds, same assay system (HIV-1Ba-L, primary macrophages), estimated from dose response curves; read-out: Estimated IC50. Here is the method:
The inhibition specifically of HIV-1 growth by the compounds of the invention was tested in primary macrophages in vitro using a method similar to that used to assess antibody neutralization (VanCott T C et al (1999)). In the present case, the laboratory adapted HIV-1 strain Ba-L was used, which is known to infect macrophages.
Peripheral Blood Mononuclear Cells (PBMC) were prepared from healthy donors using buffy-coat packs obtained from the Australian Red Cross Blood Service (ARCBS). Blood was received the day following donation, and had been depleted of serum and platelets, leaving a small volume (less than 100 mL) of concentrated leukocytes.
Leukocytes were separated from blood cells and granulocytes by density gradient centrifugation (Ficoll Paque) and washed extensively in PBS^− (without Ca/Mg) to remove platelets. Recovered cells were allowed to adhere to plastic tissue culture flasks (Becton Dickinson) for 2 hr, 37° C., 5% CO2, in media (DMEM (high)/10% AB serum/50 ug/mL gentamicin/2 mM L-glutamine) during which time the myeloid cells formed an adherent monolayer leaving lymphocytes unattached.
Non-adherent lymphocytes were removed by washing with warm PBS^+ (with Ca/Mg) and were generally discarded. In some cases those cells were recovered and frozen in media/10% DMSO for use in viral stock infections. The adherent monocytes were recovered by scraping gently with a plastic cell scraper. The myeloid cells were then plated into 96-well plates at a cell concentration of 1.5×10^6/mL, and allowed to fully differentiate over a period of 14 days.
Macrophages were allowed to differentiate over a 14 day period, with media changes as required. On day 14, cells were infected in the presence of decreasing concentrations of BIT compounds over a range 0-10 μM. Samples of 25 μL culture supernatants were removed from each well on day 7 and fresh media plus compound dilution was added.
After 7 days the samples with and without compound were analysed to assess the level of virus present in the wells, using a p24 ELISA (Innotest). Virus levels in samples were converted to “percentage of control virus growth” values based on the controls (containing no compound). From that dose response curve (example FIG. 1) the IC50 was calculated and used as a measure of compound anti-HIV activity.

T2 sequence (P27958 747-809): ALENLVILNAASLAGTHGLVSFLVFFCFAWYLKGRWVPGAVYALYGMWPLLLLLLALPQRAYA
T3 sequence (P33478 206-280): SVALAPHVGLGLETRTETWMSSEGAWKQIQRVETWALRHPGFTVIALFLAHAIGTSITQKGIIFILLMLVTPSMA
T1 sequence (P05919 whole entry): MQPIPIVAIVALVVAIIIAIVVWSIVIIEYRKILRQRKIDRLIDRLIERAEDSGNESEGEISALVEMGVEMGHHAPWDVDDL

Broadly, the IC50 is the concentration that gives 50% inhibition. As to `N=C(N)NC(=O)c1ccc2cc(-c3ccsc3)ccc2c1` [BIT305, (6-(3-thienyl)-2-napthoyl)guanidine], in data set [1], the CC50 was below 10 µM. Further, the “Average Bacterial Assay Score, Vpu” value at Vpu is listed as 0.38. Besides, at HCV p7, the “Average Bacterial Assay Score, HCV p7” value is listed as 0.00. Moreover, the “Average Bacterial Assay Score, Den M” value on Den M is listed as 1.15. Further, in the data set with HIV-1 strain Ba-L, the half-maximal inhibitory concentration (IC50) was below 0.63 µM.
As to `Cc1ccc2cc(C(=O)NC(=N)N)ccc2c1` [BIT306, (6-methyl-2-napthoyl)guanidine], in data set [1], the CC50 was in the range of 10 to 50 µM. On Vpu, the “Average Bacterial Assay Score, Vpu” value turned out to be 0.52. The “Average Bacterial Assay Score, HCV p7” value on HCV p7 came to 0.25. At Den M, the “Average Bacterial Assay Score, Den M” value amounted to 2.53. In the data set on HIV-1 strain Ba-L, the IC50 was below 10 µM.
Regarding `N=C(N)NC(=O)c1ccc2c(-c3ccccc3)cccc2c1` [BIT307, (5-phenyl-2-napthoyl)guanidine], in data set [1], the CC50 fell in the range of 10 to 50 µM. In addition, on Vpu, the “Average Bacterial Assay Score, Vpu” value amounted to 0.12. Also, the “Average Bacterial Assay Score, HCV p7” value on HCV p7 is 0.08. The “Average Bacterial Assay Score, Den M” value at Den M was determined as 2.40. Also, the IC50 with HIV-1 strain Ba-L was below 0.63 µM.
`N=C(N)NC(=O)c1ccc2c(-c3cccs3)cccc2c1` [BIT308, (5-(thien-2-yl)-2-napthoyl)guanidine]: the CC50 in data set [1] is 10 to 50 µM. Also, on Vpu, the “Average Bacterial Assay Score, Vpu” value is on record as 0.45. For the same compound, the “Average Bacterial Assay Score, HCV p7” value at HCV p7 was found to be 0.08. In addition, the “Average Bacterial Assay Score, Den M” value on Den M was determined as 2.40. Moreover, the IC50 in the data set on HIV-1 strain Ba-L is below 0.63 µM.
Taken in the same sequence, the figures for `Cc1nn(C)c(C)c1-c1cccc2cc(C(=O)NC(=N)N)ccc12` [BIT309, (5-(1,3,5-trimethylpyrazol-4-yl)-2-napthoyl)guanidine] were above 50 µM, 0.12, 0.00, 0.00 and above 10 µM.
Take `CC(C)Cn1cc(-c2cccc3cc(C(=O)NC(=N)N)ccc23)cn1` [BIT310, (5-(1-isobutyl-1H-pyrazol-4-yl)-2-napthoyl)guanidine]: the CC50 in data set [1] was 10 to 50 µM. Further, the “Average Bacterial Assay Score, Vpu” value on Vpu was 0.00. The “Average Bacterial Assay Score, HCV p7” value on HCV p7 came to 0.00. In addition, at Den M, the “Average Bacterial Assay Score, Den M” value came to 1.60. In addition, in the data set on HIV-1 strain Ba-L, the IC50 is below 2.5 µM.
Take `N=C(N)NC(=O)c1ccc2c(-c3ccoc3)cccc2c1` [BIT311, (5-(3-furyl)-2-napthoyl)guanidine]: the CC50 in data set [1] lay in the range of 10 to 50 µM. Moreover, the “Average Bacterial Assay Score, Vpu” value on Vpu is 0.42. For the same compound, the “Average Bacterial Assay Score, HCV p7” value at HCV p7 is 0.42. The “Average Bacterial Assay Score, Den M” value on Den M turned out to be 1.60. For the same compound, the IC50 with HIV-1 strain Ba-L was below 0.63 µM.
Take `N=C(N)NC(=O)c1ccc2c(C3CC3)cccc2c1` [BIT312, (5-cyclopropyl-2-napthoyl)guanidine]: in data set [1], the CC50 was 10 to 50 µM. For the same compound, the “Average Bacterial Assay Score, Vpu” value at Vpu was 0.50. In addition, the “Average Bacterial Assay Score, HCV p7” value at HCV p7 amounted to 0.80. Besides, the “Average Bacterial Assay Score, Den M” value on Den M is on record as 2.25. Moreover, in the data set on HIV-1 strain Ba-L, the IC50 was below 0.63 µM.
As to `N=C(N)NC(=O)c1ccc2c(Cl)cccc2c1` [BIT313, (5-chloro-2-napthoyl)guanidine], the CC50 in data set [1] was in the range of 10 to 50 µM. Moreover, the “Average Bacterial Assay Score, Vpu” value at Vpu is listed as 0.30. In addition, the “Average Bacterial Assay Score, HCV p7” value at HCV p7 came to 1.30. In addition, on Den M, the “Average Bacterial Assay Score, Den M” value worked out at 3.00. Further, the IC50 with HIV-1 strain Ba-L is below 2.5 µM.
